In brackets after ≈: the same amount, converted by molar mass.
Tested on: C.albicans cells
Test: Effective inhibitory concentrations for C.albicans cells grown in YPD medium
Format: cell-based, Candida albicans
Conditions: C.albicans cells grown in YPD medium at 30° C.

Q: Which “IC50 (effective inhibitory concentration)” value does the source give for CN[C@@H]1[C@@H](O)[C@@H](O[C@@H]2[C@@H](O)[C@H](O[C@H]3O[C@H]([C@@H](C)O)[C@@H](O)[C@H](O)[C@H]3N)[C@@H](N)C[C@H]2N)OC[C@]1(C)O [G418] here?
A: 11 µg/mL (≈ 22.2 µM)

Q: What about the “IC90 (effective inhibitory concentration)” value of the same compound?
A: 39 µg/mL (≈ 78.5 µM)
